Laboratory results: US20250120975A1, “INTEGRIN INHIBITORS FOR TREATMENT OF PRIMARY SCLEROSING CHOLANGITIS” (Pliant Therapeutics, Inc., priority 2023, published 2025)
“Also recorded” adds a separate entry of the source.

Assays:
[1] = Plasma and liver concentrations in BALB/c.Mdr2−/− mice at harvest; format: in vivo, mouse
Experimental: (§1) (S)-4-((2-methoxyethyl)(4-(5,6,7,8-tetrahydro-1,8-naphthyridin-2-yl)butyl)amino)-2-(quinazolin-4-ylamino)butanoic acid (or PBS) was dosed once daily orally at 100 mg/kg, 300 mg/kg or 1000 mg/kg (see Table B-2) starting at 6 weeks after birth of the subject and continuing for 6 weeks. All animals were euthanized and necropsied at the end of week 12.
Plasma samples were assayed by a qualified non-GLP bioanalytical method. Liver samples were homogenized in five volumes of ice-cold water. For plasma and liver homogenate, 20 μL of sample was extracted with 100 μL methanol: acetonitrile (5:95 v: v) containing 10 ng/mL internal standard. The solution was centrifuged at 4000 RPM for 5 minutes and 70 μL of supernatant transferred to injection plate containing 70 μl water. An aliquot of 10 μL was injected to a Sciex 4000 system. Concentrations of (S)-4-((2-methoxyethyl)(4-(5,6,7,8-tetrahydro-1,8-naphthyridin-2-yl)butyl)amino)-2-(quinazolin-4-ylamino)butanoic acid in mouse plasma and liver homogenate were determined by using Analyst 1.6 software (AB Sciex, Foster City, CA). […] Using this bioanalytical method and four-times dilution of the samples, (S)-4-((2-methoxyethyl)(4-(5,6,7,8-tetrahydro-1,8-naphthyridin-2-yl)butyl)amino)-2-(quinazolin-4-ylamino)butanoic acid can be quantified in the range of 0.5-8000 ng/mL in plasma and liver homogenate.

[2] = test system: BALB/c.Mdr2−/− mouse model of biliary fibrosis; experiment: Assessment of body and organ weights (liver, spleen) and colon length; format: in vivo; conditions: 6 weeks
From the text: (§2) The tissue source is BALBc.Mdr2-/−male mice that were 6 weeks old. The Mdr2(abcb4)−/− mouse model of sclerosing cholangitis has been previously described and is a model of spontaneously progressive hepatic fibrosis in mice with deletion of the biliary phospholipid flippase on fibrosis-susceptible background (Mdr2(abcb4)^−/−. BALB/c mouse). See N. Ikenaga, et al. (2015) Am J Pathol. 185 (2): 325-334, the entire contents of which are hereby incorporated by reference in their entirety.
as §1
Body, liver and spleen weights and colon length were determined at necropsy. Liver and plasma were snap frozen/preserved in liquid nitrogen. Two pieces of liver were fixed in formalin for histological assessment.

[3] = test system: BALB/c.Mdr2−/− mouse model of biliary fibrosis; experiment: Liver and kidney biochemistries in serum (ALT, ALP, total bilirubin); format: in vivo; conditions: 6 weeks
From the text: as §2, §1
Determination of ALT, ALP, and total bilirubin was performed as conventional liver and kidney function tests at the clinical biochemistry core (BIDMC).

αVβ1 integrin = αVβ1 integrin (Homo sapiens, UniProt P05556+P06756); experiment: Inhibition of αVβ1 integrin (IC50); format: binding; conditions: read-out: 50% inhibitory concentration [IC50] αVβ1
Chain of αVβ1 integrin (P06756 31-1048): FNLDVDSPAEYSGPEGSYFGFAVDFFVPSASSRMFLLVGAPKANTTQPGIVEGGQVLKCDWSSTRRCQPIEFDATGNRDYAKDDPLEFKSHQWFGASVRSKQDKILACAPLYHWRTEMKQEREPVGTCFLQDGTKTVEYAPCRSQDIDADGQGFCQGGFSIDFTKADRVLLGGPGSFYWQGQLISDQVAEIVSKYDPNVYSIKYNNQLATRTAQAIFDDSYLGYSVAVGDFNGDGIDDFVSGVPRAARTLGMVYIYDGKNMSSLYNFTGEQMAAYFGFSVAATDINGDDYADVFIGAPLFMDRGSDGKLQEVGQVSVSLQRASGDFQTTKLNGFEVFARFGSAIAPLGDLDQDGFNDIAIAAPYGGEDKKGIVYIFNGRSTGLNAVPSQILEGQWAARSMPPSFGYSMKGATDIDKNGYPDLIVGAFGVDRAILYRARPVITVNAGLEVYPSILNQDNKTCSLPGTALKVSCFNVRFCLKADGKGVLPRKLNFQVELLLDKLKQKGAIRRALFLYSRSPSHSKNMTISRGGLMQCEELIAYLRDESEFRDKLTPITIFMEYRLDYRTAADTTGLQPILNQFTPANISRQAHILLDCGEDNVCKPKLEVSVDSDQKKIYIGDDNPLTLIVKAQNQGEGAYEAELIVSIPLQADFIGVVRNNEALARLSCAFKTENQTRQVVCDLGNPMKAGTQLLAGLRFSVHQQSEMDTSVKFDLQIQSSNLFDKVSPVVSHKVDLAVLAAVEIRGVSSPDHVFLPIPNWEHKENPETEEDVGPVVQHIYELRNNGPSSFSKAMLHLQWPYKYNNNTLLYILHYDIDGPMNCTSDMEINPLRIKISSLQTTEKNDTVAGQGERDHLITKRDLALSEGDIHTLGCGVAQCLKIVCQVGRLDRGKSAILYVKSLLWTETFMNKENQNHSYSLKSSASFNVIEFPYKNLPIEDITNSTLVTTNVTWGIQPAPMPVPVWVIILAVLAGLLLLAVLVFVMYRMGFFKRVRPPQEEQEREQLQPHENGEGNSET
Chain of αVβ1 integrin (P05556 21-798): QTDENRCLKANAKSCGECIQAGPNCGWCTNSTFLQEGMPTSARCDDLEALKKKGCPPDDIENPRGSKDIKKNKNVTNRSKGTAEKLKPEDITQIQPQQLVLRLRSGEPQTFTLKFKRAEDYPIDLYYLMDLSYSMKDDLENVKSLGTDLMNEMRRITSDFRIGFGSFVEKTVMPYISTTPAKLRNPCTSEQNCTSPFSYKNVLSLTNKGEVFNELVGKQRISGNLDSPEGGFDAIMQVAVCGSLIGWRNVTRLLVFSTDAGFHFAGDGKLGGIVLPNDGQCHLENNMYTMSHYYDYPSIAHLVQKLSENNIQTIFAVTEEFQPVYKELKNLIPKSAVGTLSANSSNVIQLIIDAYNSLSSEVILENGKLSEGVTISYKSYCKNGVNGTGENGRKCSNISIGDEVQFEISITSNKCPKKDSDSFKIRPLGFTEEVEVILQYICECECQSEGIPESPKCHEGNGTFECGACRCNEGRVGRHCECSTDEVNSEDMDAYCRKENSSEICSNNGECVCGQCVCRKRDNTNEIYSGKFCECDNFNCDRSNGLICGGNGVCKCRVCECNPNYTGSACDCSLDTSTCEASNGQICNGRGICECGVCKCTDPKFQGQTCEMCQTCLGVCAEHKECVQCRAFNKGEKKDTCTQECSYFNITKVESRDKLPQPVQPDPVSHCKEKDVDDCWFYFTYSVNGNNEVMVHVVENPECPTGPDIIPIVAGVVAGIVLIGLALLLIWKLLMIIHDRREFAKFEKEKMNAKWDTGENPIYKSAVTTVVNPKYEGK

[4] = test system: subjects with PSC and suspected liver fibrosis; experiment: Phase 2a INTEGRIS-PSC: Itch Numerical Rating Scale (NRS); format: in vivo, human
Experimental: In one embodiment is provided a method of reducing itch or pruritus (chronic itching). Itch can be quantified on a 0-10 scale using the Peak Pruritus Numerical Rating Scale (NRS), where 0 is “no itch” and 10 is “worst imaginable itch” over the past 24 hours (Yosipovitch et al., British Journal of Dermatology (2019) 181:761-769, incorporated by reference herein in its entirety). In embodiments, a method of reducing pruritus in a human who has fibrotic liver disease is provided, comprising administering to the human(S)-4-((2-methoxyethyl)(4-(5,6,7,8-tetrahydro-1,8-naphthyridin-2-yl)butyl)amino)-2-(quinazolin-4-ylamino)butanoic acid, or a pharmaceutically acceptable salt thereof. In embodiments, a method of reducing (e.g., ameliorating) pruritus in a human who has fibrotic liver disease (e.g., primary sclerosing cholangitis) is provided, comprising administering to the human(S)-4-((2-methoxyethyl)(4-(5,6,7,8-tetrahydro-1,8-naphthyridin-2-yl)butyl)amino)-2-(quinazolin-4-ylamino)butanoic acid, or a pharmaceutically acceptable salt thereof, as compared to a human who has not been administered(S)-4-((2-methoxyethyl)(4-(5,6,7,8-tetrahydro-1,8-naphthyridin-2-yl)butyl)amino)-2-(quinazolin-4-ylamino)butanoic acid, or a pharmaceutically acceptable salt thereof. […] In further embodiments, pruritus is reduced as measured by a change in itch numerical rating scale from between about 0.8 and about-0.2 at about 12 weeks following a first administration of (S)-4-((2-methoxyethyl)(4-(5,6,7,8-tetrahydro-1,8-naphthyridin-2-yl)butyl)amino)-2-(quinazolin-4-ylamino)butanoic acid, or a pharmaceutically acceptable salt thereof to the human. […]

COCCN(CCCCc1ccc2c(n1)NCCC2)CC[C@H](Nc1ncnc2ccccc12)C(=O)O [Bexotegrast, (S)-4-((2-methoxyethyl)(4-(5,6,7,8-tetrahydro-1,8-naphthyridin-2-yl)butyl)amino)-2-(quinazolin-4-ylamino)butanoic acid]
plasma and liver concentrations, comparison of dose groups ([1]; 100, 300 and 1000 mg/kg PO/QD, 6 weeks): higher levels in the 1000 mg/kg group | Kp at 6 weeks ([1]; mouse, liver (relative to plasma), BALB/c.Mdr2−/− mice, after 6 weeks of PO/QD dosing, at harvest, read-out: Liver levels (ng/g) relative to the levels seen in the plasma (ng/mL)): 3 to 5 | liver weight relative to vehicle control ([2]; 1000 mg/kg/day): decreased | colon length ([2]; 100, 300, 1000 mg/kg): did not change | spleen weights ([2]; all doses (100, 300, 1000 mg/kg)): no changes | serum alkaline phosphatase levels ([3]; 1000 mg/kg, vs vehicle): significantly decreased | serum ALT levels ([3]; 100, 300, 1000 mg/kg): did not change | serum total bilirubin levels ([3]; 100, 300, 1000 mg/kg): dose dependent trend down | IC50 (αVβ1 integrin): 3.4 nM | Itch Numerical Rating Scale (NRS) score ([4]; 320 mg, over 24 weeks, relative to an increase on placebo, Example B-5): did not increase; also recorded: stable score | itch (NRS) relative to placebo ([4]; 40, 80, 160 mg, Week 12, statistical significance for the 160 mg dose, Example B-3): dose dependent reductions | itch (NRS) relative to the placebo ([4]; 40-320 mg, Week 12, statistical significance for the 160 mg, 320 mg groups, Example B-4): dose-dependent reductions
